Assay results: US20250090437A1, “COSMETIC COMPOUNDING AGENT, COSMETIC AND PRODUCTION METHOD THEREOF” (MIYOSHI OIL & FAT CO., LTD., priority 2019, published 2025)

What was measured:
[1] = Solubility of active ingredient (gallic acid) in aqueous solution of the compound; conditions: in 1.8 g compound + 8.2 g ion-exchange water
[2] = Water retention property and adherability with respect to healthy hair; set-up: species or system human
[3] = Sensory evaluation on damaged hair after using organic ammonium salt; set-up: species or system human; conditions: damaged hair, 80 wt % aqueous solution
Method: Here, an 80 wt % aqueous solution(s) of each of the compounds B11, B12, B23, B26 and B27 (content in terms of anhydride in the cases of the compounds B11, B12 and B23) were prepared and used as samples. Next, one minute was spent in evenly applying 10.0 g of each sample to a bundle of the damaged hairs weighing about 10 g, using a brush; the bundle of the damaged hairs was then left for 5 min. After leaving it for 5 min, the bundle of the damaged hairs was rinsed with a hot water of 40° C. for 30 sec, and evaluated was a finger-combing capability at the time of performing washing. The hair bundle that had been rinsed was then dried with a towel and further subjected to air drying for a day, followed by evaluating items such as elasticity/resilience (feeling by bare hands), cohesiveness, surface smoothness and non-waviness, from the perspective of superiority or inferiority to a test hair bundle(s) uncoated with the sample.

[4] = Solubility of active ingredient (glutamic acid) in aqueous solution of the compound; conditions: in 1.8 g compound + 8.2 g ion-exchange water
[5] = Sensory evaluation on healthy hair after using organic ammonium salt; set-up: species or system human; conditions: healthy hair, 80 wt % aqueous solution
Method: Here, an 80 wt % aqueous solution(s) of each of the compounds B11, B12, B23, B26 and B27 (content in terms of anhydride in the cases of the compounds B11, B12 and B23) were prepared and used as samples. Next, one minute was spent in evenly applying 10.0 g of each sample to a bundle of the healthy hairs weighing about 10 g, using a brush; the bundle of the healthy hairs was then left for 5 min. After leaving it for 5 min, the bundle of the healthy hairs was rinsed with a hot water of 40° C. for 30 sec, and evaluated was a finger-combing capability at the time of performing washing. The hair bundle that had been rinsed was then dried with a towel and further subjected to air drying for a day, followed by evaluating items such as flexibility, finger-combing capability, texture, elasticity/resilience (feeling by bare hands), volume increase (visual evaluation), cohesiveness, moist feeling, surface smoothness, non-stickiness (feeling by bare hands) and gloss (visual evaluation), from the perspective of superiority or inferiority to a test hair bundle(s) uncoated with the sample.

[6] = Permeability to skin (horny layer tape stripping method); type: in vivo; conditions: extraction liquid, an hour after application to the arm, HPLC
Method: Skin permeability was evaluated by a horny layer tape stripping method. […] A sample was applied to the arm and then left thereon for an hour before performing tape stripping on the horn by eight layers. An adhered substance on this tape was then extracted with an ion-exchange water over the course of 10 min, followed by filtrating an extraction liquid thus obtained with a 0.2 μm filter, and then quantifying, via HPLC, the amount of each of the compounds C20, C64 and C97 in each extraction liquid filtrated.

[7] = Surface resistance measurement of organic ammonium salt; conditions: 0.7 g applied to polyurethane artificial leather; liquid state; uncoated greater than 4×10^11Ω
keratin = test: Keratin adherability; conditions: 1 g keratin in 2 g of 50 wt % aqueous solution, 25° C., 24 hours
Method: Here, 1 g of a powdery keratin (by Tokyo Chemical Industry Co., Ltd.) (pre-test keratin) was added to 2 g of a 50 wt % aqueous solution of each of the compounds B11, B23, B26 and B27, followed by performing stirring at 25° C. for 24 hours. After stirring, filtration was performed, and a powdery keratin obtained was then dried so as to obtain a keratin that had been treated (post-test keratin).
A rate of compound adhesion to keratin was calculated with the following formula.

Amount of dissolution Gallic acid [1]: 0.08 g
Amount of dissolution Glutamic acid [4]: <0.08 g
Compound concentration ([6]; Tape stripping layer 1): 0.030 ml/L
Compound concentration ([6]; Tape stripping layer 2): 0.014 ml/L
Compound concentration ([6]; Tape stripping layer 3): 0.009 ml/L
Compound concentration ([6]; Tape stripping layer 4): 0.009 ml/L
Compound concentration ([6]; Tape stripping layer 5): 0.008 ml/L
Compound concentration ([6]; Tape stripping layer 6): 0.006 ml/L
Compound concentration ([6]; Tape stripping layer 7): 0.006 ml/L
Compound concentration ([6]; Tape stripping layer 8): 0.006 ml/L
Surface resistance value [7]: 5×10^8 Ω
Compound: OCC(O)CO [Compound A52, glycerin, reference compound]
Post-test moisture rate ([2]; healthy hair immersed 60 min in 80 wt % aqueous solution, after 24 hours at 40° C., 35 to 40% RH, pre-test 7.6%): 5.3%
Compound adhesion rate ([2]; healthy hair immersed 60 min in 80 wt % aqueous solution, listed as B26): 1.0%
Rate of reduction in moisture ([2]; healthy hair, 80 wt % aqueous solution, 24 hours at 40° C., 35 to 40% RH): 30%
After air drying: Cohesiveness of hair [3]: Δ~X
After air drying: Elasticity/Resilience [3]: Δ~X
After air drying: Smoothness of hair surface [3]: Δ~X
After air drying: Suppression of hair waviness [3]: Δ~X
When washing: Finger-combing capability [3]: Δ~X
After air drying: Cohesiveness of hair [5]: Δ~X
After air drying: Elasticity/Resilience [5]: Δ~X
After air drying: Finger-combing capability [5]: Δ~X
After air drying: Flexibility [5]: Δ~X
After air drying: Gloss of hair [5]: Δ~X
After air drying: Moist feeling [5]: Δ~X
After air drying: Non-stickiness of hair surface [5]: Δ~X
After air drying: Smoothness of hair surface [5]: Δ~X
After air drying: Texture [5]: Δ~X
After air drying: Volume increase [5]: Δ~X
When washing: Finger-combing capability ([5]; versus uncoated hair bundle): ◯
Rate of compound adhesion to keratin (keratin): 11.0%
